Like-named read-outs stand apart in the source and are kept apart here.
Assays:
[1] = test system: granulocyte macrophage (CFU-GM), erythroid (BFU-E), and multipotential (CFU-GEMM) progenitor cells; conditions: mice; for Fold Change Compared to Time 0, Progenitors, BFU-E / Fold Change Compared to Time 0, Progenitors, CFU-GEMM / Fold Change Compared to Time 0, Progenitors, GM / Absolute Progenitors Per ML Blood, BFU-E / Absolute Progenitors Per ML Blood, CFU-GEMM / Absolute Progenitors Per ML Blood, CFU-GM: methylcellulose culture; for Absolute Number Progenitors Per ML Blood, BFU-E / Absolute Number Progenitors Per ML Blood, CFU-GEMM / Absolute Number Progenitors Per ML Blood, CFU-GM: 1 hour post administration; for Absolute Progenitors Per ML Blood, BFU-E / Absolute Progenitors Per ML Blood, CFU-GEMM / Absolute Progenitors Per ML Blood, CFU-GM: single s.c. 5 mg/Kg
[2] = test system: unseparated and low density nucleated cells; conditions: 80 μg/kg s.c.

In the case of `c1cc(CN2CCCNCCNCCCNCC2)ccc1CN1CCCNCCNCCCNCC1` [AMD3100, 1,1′-[1,4-phenylene-bis(methylene)]-bis-1,4,8,11-tetraazacyclotetradecane], the “time post-administration at which elevation of the white blood cell count maximized” value (white blood cells; human volunteers, 80 μg/kg s.c.) is reported as 6 h, the white blood cells (white blood cells; volunteer P1, 1 Hr after 80 μg/kg s.c.) is reported as 14.8 ×10^3 WBC's and the white blood cells (white blood cells; volunteer P1, 2 Hr after 80 μg/kg s.c.) is reported as 21.4 ×10^3 WBC's. The white blood cells (white blood cells; volunteer P1, 4 Hr after 80 μg/kg s.c.) was 23.2 ×10^3 WBC's, the white blood cells (white blood cells; volunteer P1, 6 Hr after 80 μg/kg s.c.) was 26.2 ×10^3 WBC's and the white blood cells (white blood cells; volunteer P1, 9 Hr after 80 μg/kg s.c.) was 22.3 ×10^3 WBC's. The white blood cells (white blood cells; volunteer P1, 30 Min after 80 μg/kg s.c.) was 8.02 ×10^3 WBC's, the white blood cells (white blood cells; volunteer P1, Day 2 after 80 μg/kg s.c.) was 7.07 ×10^3 WBC's and the white blood cells (white blood cells; volunteer P2, 1 Hr after 80 μg/kg s.c.) was 8.93 ×10^3 WBC's. For the same compound, the white blood cells (white blood cells; volunteer P2, 2 Hr after 80 μg/kg s.c.) was 13.5 ×10^3 WBC's, the white blood cells (white blood cells; volunteer P2, 4 Hr after 80 μg/kg s.c.) was 18.00 ×10^3 WBC's and the white blood cells (white blood cells; volunteer P2, 6 Hr after 80 μg/kg s.c.) was 19.2 ×10^3 WBC's. For the same compound, the white blood cells (white blood cells; volunteer P2, 9 Hr after 80 μg/kg s.c.) was 19.6 ×10^3 WBC's, the white blood cells (white blood cells; volunteer P2, 30 Min after 80 μg/kg s.c.) was 6.53 ×10^3 WBC's and the white blood cells (white blood cells; volunteer P2, Day 2 after 80 μg/kg s.c.) was 8.03 ×10^3 WBC's. The white blood cells (white blood cells; volunteer P3, 1 Hr after 80 μg/kg s.c.) was 9.28 ×10^3 WBC's, the white blood cells (white blood cells; volunteer P3, 4 Hr after 80 μg/kg s.c.) was 18.10 ×10^3 WBC's and the white blood cells (white blood cells; volunteer P3, 6 Hr after 80 μg/kg s.c.) was 17.9 ×10^3 WBC's. For the same compound, the white blood cells (white blood cells; volunteer P3, 9 Hr after 80 μg/kg s.c.) was 18.4 ×10^3 WBC's, the white blood cells (white blood cells; volunteer P3, 30 Min after 80 μg/kg s.c.) was 7.14 ×10^3 WBC's and the white blood cells (white blood cells; volunteer P3, Day 2 after 80 μg/kg s.c.) was 4.98 ×10^3 WBC's. The white blood cells (white blood cells; volunteer P4, 1 Hr after 80 μg/kg s.c.) was 7.38 ×10^3 WBC's, the white blood cells (white blood cells; volunteer P4, 2 Hr after 80 μg/kg s.c.) was 12.4 ×10^3 WBC's and the white blood cells (white blood cells; volunteer P4, 4 Hr after 80 μg/kg s.c.) was 14.6 ×10^3 WBC's. For the same compound, the white blood cells (white blood cells; volunteer P4, 6 Hr after 80 μg/kg s.c.) was 15.8 ×10^3 WBC's, the white blood cells (white blood cells; volunteer P4, 9 Hr after 80 μg/kg s.c.) was 13.9 ×10^3 WBC's and the white blood cells (white blood cells; volunteer P4, 30 Min after 80 μg/kg s.c.) was 4.37 ×10^3 WBC's. For the same compound, the white blood cells (white blood cells; volunteer P4, Day 2 after 80 μg/kg s.c.) was 4.98 ×10^3 WBC's, the white blood cells (white blood cells; volunteer P5, 1 Hr after 80 μg/kg s.c.) was 8.43 ×10^3 WBC's and the white blood cells (white blood cells; volunteer P5, 4 Hr after 80 μg/kg s.c.) was 16.90 ×10^3 WBC's. The white blood cells (white blood cells; volunteer P5, 6 Hr after 80 μg/kg s.c.) was 19.3 ×10^3 WBC's, the white blood cells (white blood cells; volunteer P5, 9 Hr after 80 μg/kg s.c.) was 19.00 ×10^3 WBC's and the white blood cells (white blood cells; volunteer P5, 30 Min after 80 μg/kg s.c.) was 6.08 ×10^3 WBC's. For the same compound, the white blood cells (white blood cells; volunteer P5, Day 2 after 80 μg/kg s.c.) was 4.57 ×10^3 WBC's, the “Fold Change Compared to Time 0, Progenitors, BFU-E” value ([1]; Time 2′) was 2.07 fold and the “Fold Change Compared to Time 0, Progenitors, CFU-GEMM” value ([1]; Time 2′) was 1.85 fold. The “Fold Change Compared to Time 0, Progenitors, GM” value ([1]; Time 2′) was 2.86 fold, the “Fold Change Compared to Time 0, Progenitors, BFU-E” value ([1]; Time 15″) was 2.72 fold and the “Fold Change Compared to Time 0, Progenitors, CFU-GEMM” value ([1]; Time 15″) was 3.51 fold. The “Fold Change Compared to Time 0, Progenitors, GM” value ([1]; Time 15″) was 2.73 fold, the “Fold Change Compared to Time 0, Progenitors, BFU-E” value ([1]; Time 30″) was 4.24 fold and the “Fold Change Compared to Time 0, Progenitors, CFU-GEMM” value ([1]; Time 30″) was 4.41 fold. For the same compound, the “Fold Change Compared to Time 0, Progenitors, GM” value ([1]; Time 30″) was 6.23 fold, the “Absolute Number Progenitors Per ML Blood, BFU-E” value ([1]; single s.c. 1 mg/kg) was 62 Per ML Blood and the “Absolute Number Progenitors Per ML Blood, CFU-GEMM” value ([1]; single s.c. 1 mg/kg) was 27.1 Per ML Blood. The “Absolute Number Progenitors Per ML Blood, CFU-GM” value ([1]; single s.c. 1 mg/kg) was 424 Per ML Blood, the “Absolute Number Progenitors Per ML Blood, BFU-E” value ([1]; single s.c. 2.5 mg/kg) was 98.9 Per ML Blood and the “Absolute Number Progenitors Per ML Blood, CFU-GEMM” value ([1]; single s.c. 2.5 mg/kg) was 70.6 Per ML Blood. The “Absolute Number Progenitors Per ML Blood, CFU-GM” value ([1]; single s.c. 2.5 mg/kg) was 687.6 Per ML Blood, the “Absolute Progenitors Per ML Blood, BFU-E” value ([1]; 15″) was 134.5 Per ML Blood and the “Absolute Progenitors Per ML Blood, CFU-GEMM” value ([1]; 15″) was 90.4 Per ML Blood. For the same compound, the “Absolute Progenitors Per ML Blood, CFU-GM” value ([1]; 15″) was 791.6 Per ML Blood, the “Absolute Progenitors Per ML Blood, BFU-E” value ([1]; 30″) was 209.3 Per ML Blood and the “Absolute Progenitors Per ML Blood, CFU-GEMM” value ([1]; 30″) was 113.5 Per ML Blood. For the same compound, the “Absolute Progenitors Per ML Blood, CFU-GM” value ([1]; 30″) was 1805.5 Per ML Blood, the “Absolute Progenitors Per ML Blood, BFU-E” value ([1]; 120″) was 102.3 Per ML Blood and the “Absolute Progenitors Per ML Blood, CFU-GEMM” value ([1]; 120″) was 47.6 Per ML Blood. For the same compound, the “Absolute Progenitors Per ML Blood, CFU-GM” value ([1]; 120″) was 828.7 Per ML Blood, the “Absolute Number Progenitors Per ML Blood, BFU-E” value ([1]; single s.c. 5 mg/kg) was 92.8 Per ML Blood and the “Absolute Number Progenitors Per ML Blood, CFU-GEMM” value ([1]; single s.c. 5 mg/kg) was 69.5 Per ML Blood. The “Absolute Number Progenitors Per ML Blood, CFU-GM” value ([1]; single s.c. 5 mg/kg) was 608.4 Per ML Blood, the “Absolute Number Progenitors Per ML Blood, BFU-E” value ([1]; single s.c. 10 mg/kg) was 120.5 Per ML Blood and the “Absolute Number Progenitors Per ML Blood, CFU-GEMM” value ([1]; single s.c. 10 mg/kg) was 79.8 Per ML Blood. The “Absolute Number Progenitors Per ML Blood, CFU-GM” value ([1]; single s.c. 10 mg/kg) was 825.6 Per ML Blood, the “FOLD CHANGE COMPARED TO TIME = 0, nucleated cellularity PBL-LD” value ([2]; P1, T = 1 h after injection) was 2.07 fold and the “FOLD CHANGE COMPARED TO TIME = 0, nucleated cellularity PBL-US” value ([2]; P1, T = 1 h after injection) was 2.54 fold. The “FOLD CHANGE COMPARED TO TIME = 0, nucleated cellularity PBL-LD” value ([2]; P1, T = 3 h after injection) was 2.83 fold.
